# In publication PMC10726920 (Cancer Medicine, 2023):
# Test system: patients with acute lymphoblastic leukemia
# Test: Adverse events (CTCAE version 4.0), Phase II study NCI-9775 of sapanisertib monotherapy
# Assay type: in vivo
# Procedure: Responders could continue on the same dose or proceed to allogeneic hematopoietic cell transplant if available. Non‐responders (but tolerating drug) could increase their dose to 4 mg orally for 21 days every 28 days (dose level + 1) starting in Cycle 3 and 4 mg orally continuously (dose level + 2) starting in Cycle 5 (if they tolerated dose level + 1). Dose reduction was recommended for toxicity (dose level − 1: 2 mg daily for 21 days every 28 days; dose level − 2: 2 mg daily for 5 days/week for 3 weeks every 4 weeks). […] Intrathecal chemotherapy was allowed per institutional standard policies. In‐home blood glucose monitoring was performed daily to monitor blood sugar (a glucometer was given to every patient on the study). Discontinuation of therapy was recommended for disease progression, severe toxicity, lack of response, proceeding to hematopoietic cell transplant, or prolonged delay of the subsequent cycle (>1 month delay for therapy‐related toxicity or >2 months delay for unrelated toxicity).
# The primary endpoint was the proportion of successes, which was estimated by the number of successes divided by the total number of evaluable patients. Secondary endpoints of duration of response (CR or CRi) and overall survival (OS) were evaluated using Kaplan–Meier techniques; the frequency of proceeding to allogeneic stem cell transplant after achieving response and adverse events (AEs), as evaluated using reported the NCI Common Terminology Criteria for Adverse Events (CTCAE) version 4.0, were presented using descriptive statistics.
# [1] = Grade 3–4, at least possibly related
# [2] = Grade >2 hematological, abstract
# [3] = grade 3–4 non‐hematologic, abstract
# [4] = possibly related, B-Cell, 10 evaluable
# [5] = possibly related, T-Cell, 5 evaluable
# [6] = treatment-related, 15 evaluable
smiles,measurement,setting,value
CC(C)n1nc(-c2ccc3oc(N)nc3c2)c2c(N)ncnc21 [sapanisertib],patients with a grade 3 or higher AE related to the study drug,15 evaluated,9 patients
same,patients with at least 1 grade 3 AE,15 evaluated,15 patients
same,"anemia, patients",[1],4
same,"leukocytosis, patients",[1],1
same,"leukopenia, patients",[1],2
same,"lymphopenia, patients",[1],2
same,"neutropenia, patients",[1],1
same,"thrombocytopenia, patients",[1],4
same,"abdominal pain, patients",Grade 3–4 treatment‐related,1
same,"anorexia, patients",Grade 3–4 treatment‐related,1
same,"bilirubin increase, patients",Grade 3–4 treatment‐related,1
same,"confusion, patients",Grade 3–4 treatment‐related,1
same,"delirium, patients",Grade 3–4 treatment‐related,1
same,"febrile neutropenia, patients",Grade 3–4 treatment‐related,1
same,"fibrinogen decrease, patients",Grade 3–4 treatment‐related,1
same,"hyperglycemia, patients",Grade 3–4 treatment‐related,2
same,"mucositis, patients",Grade 3–4 treatment‐related,3
same,"pneumonitis, patients",Grade 3–4 treatment‐related,1
same,"thoracic disease, patients",Grade 3–4 treatment‐related,1
same,"leukopenia, patients",[2],3
same,"lymphopenia, patients",[2],2
same,"neutropenia, patients",[2],1
same,"thrombocytopenia, patients",[2],1
same,patients with at least one grade ≥3 non‐hematologic AE,Six of 11 patients in clearance-toxicity analysis,54.5%
same,"Hyperglycemia, percent of patients","any grade, discussion",25%
same,"hyperglycemia, patients","any grade, discussion",4
same,Hyperglycemia G2,discussion,2 patients
same,Hyperglycemia G3,discussion,2 patients
same,median time to hyperglycemia,discussion,6 days
same,mucositis,discussion,3 patients
same,anorexia,[3],1 patient
same,confusion,[3],1 patient
same,hepatic failure,[3],1 patient
same,hyperglycemia,[3],2 patients
same,mucositis,[3],3 patients
same,pneumonitis,[3],1 patient
same,seizures,[3],1 patient
same,Abdominal pain grade 3,[4],0 (0%) N (%)
same,Abdominal pain grade 4,[4],0 (0%) N (%)
same,Abdominal pain grade 5,[4],0 (0%) N (%)
same,Anemia grade 3,[4],1 (10%) N (%)
same,Anemia grade 4,[4],0 (0%) N (%)
same,Anemia grade 5,[4],0 (0%) N (%)
same,Anorexia grade 3,[4],1 (10%) N (%)
same,Anorexia grade 4,[4],0 (0%) N (%)
same,Anorexia grade 5,[4],0 (0%) N (%)
same,Confusion grade 3,[4],1 (10%) N (%)
same,Confusion grade 4,[4],0 (0%) N (%)
same,Confusion grade 5,[4],0 (0%) N (%)
same,Fatigue grade 3,[4],1 (10%) N (%)
same,Fatigue grade 4,[4],0 (0%) N (%)
same,Fatigue grade 5,[4],0 (0%) N (%)
same,Febrile neutropenia grade 3,[4],1 (10%) N (%)
same,Febrile neutropenia grade 4,[4],0 (0%) N (%)
same,Febrile neutropenia grade 5,[4],0 (0%) N (%)
same,Hyperglycemia grade 3,[4],2 (20%) N (%)
same,Hyperglycemia grade 4,[4],0 (0%) N (%)
same,Hyperglycemia grade 5,[4],0 (0%) N (%)
same,Leukocytosis grade 3,[4],0 (0%) N (%)
same,Leukocytosis grade 4,[4],0 (0%) N (%)
same,Leukocytosis grade 5,[4],0 (0%) N (%)
same,Lymphocyte count decreased grade 3,[4],2 (20%) N (%)
same,Lymphocyte count decreased grade 4,[4],0 (0%) N (%)
same,Lymphocyte count decreased grade 5,[4],0 (0%) N (%)
same,Mucositis oral grade 3,[4],3 (30%) N (%)
same,Mucositis oral grade 4,[4],0 (0%) N (%)
same,Mucositis oral grade 5,[4],0 (0%) N (%)
same,"Neoplasms benign, mal, uncpec - Oth spec grade 3",[4],0 (0%) N (%)
same,"Neoplasms benign, mal, uncpec - Oth spec grade 4",[4],0 (0%) N (%)
same,"Neoplasms benign, mal, uncpec - Oth spec grade 5",[4],0 (0%) N (%)
same,Neutrophil count decreased grade 3,[4],0 (0%) N (%)
same,Neutrophil count decreased grade 4,[4],1 (10%) N (%)
same,Neutrophil count decreased grade 5,[4],0 (0%) N (%)
same,Platelet count decreased grade 3,[4],0 (0%) N (%)
same,Platelet count decreased grade 4,[4],1 (10%) N (%)
same,Platelet count decreased grade 5,[4],0 (0%) N (%)
same,Pneumonitis grade 3,[4],0 (0%) N (%)
same,Pneumonitis grade 4,[4],0 (0%) N (%)
same,Pneumonitis grade 5,[4],0 (0%) N (%)
same,"Resp, thoracic, mediastinal - Oth spec grade 3",[4],0 (0%) N (%)
same,"Resp, thoracic, mediastinal - Oth spec grade 4",[4],1 (10%) N (%)
same,"Resp, thoracic, mediastinal - Oth spec grade 5",[4],0 (0%) N (%)
same,White blood cell decreased grade 3,[4],0 (0%) N (%)
same,White blood cell decreased grade 4,[4],2 (20%) N (%)
same,White blood cell decreased grade 5,[4],0 (0%) N (%)
same,Abdominal pain grade 3,[5],1 (20%) N (%)
same,Abdominal pain grade 4,[5],0 (0%) N (%)
same,Abdominal pain grade 5,[5],0 (0%) N (%)
same,Anemia grade 3,[5],0 (0%) N (%)
same,Anemia grade 4,[5],0 (0%) N (%)
same,Anemia grade 5,[5],0 (0%) N (%)
same,Anorexia grade 3,[5],0 (0%) N (%)
same,Anorexia grade 4,[5],0 (0%) N (%)
same,Anorexia grade 5,[5],0 (0%) N (%)
same,Confusion grade 3,[5],0 (0%) N (%)
same,Confusion grade 4,[5],0 (0%) N (%)
same,Confusion grade 5,[5],0 (0%) N (%)
same,Fatigue grade 3,[5],0 (0%) N (%)
same,Fatigue grade 4,[5],0 (0%) N (%)
same,Fatigue grade 5,[5],0 (0%) N (%)
same,Febrile neutropenia grade 3,[5],0 (0%) N (%)
same,Febrile neutropenia grade 4,[5],0 (0%) N (%)
same,Febrile neutropenia grade 5,[5],0 (0%) N (%)
same,Hyperglycemia grade 3,[5],0 (0%) N (%)
same,Hyperglycemia grade 4,[5],0 (0%) N (%)
same,Hyperglycemia grade 5,[5],0 (0%) N (%)
same,Leukocytosis grade 3,[5],1 (20%) N (%)
same,Leukocytosis grade 4,[5],0 (0%) N (%)
same,Leukocytosis grade 5,[5],0 (0%) N (%)
same,Lymphocyte count decreased grade 3,[5],0 (0%) N (%)
same,Lymphocyte count decreased grade 4,[5],0 (0%) N (%)
same,Lymphocyte count decreased grade 5,[5],0 (0%) N (%)
same,Mucositis oral grade 3,[5],0 (0%) N (%)
same,Mucositis oral grade 4,[5],0 (0%) N (%)
same,Mucositis oral grade 5,[5],0 (0%) N (%)
same,"Neoplasms benign, mal, uncpec - Oth spec grade 3",[5],1 (20%) N (%)
same,"Neoplasms benign, mal, uncpec - Oth spec grade 4",[5],0 (0%) N (%)
same,"Neoplasms benign, mal, uncpec - Oth spec grade 5",[5],0 (0%) N (%)
same,Neutrophil count decreased grade 3,[5],0 (0%) N (%)
same,Neutrophil count decreased grade 4,[5],0 (0%) N (%)
same,Neutrophil count decreased grade 5,[5],0 (0%) N (%)
same,Platelet count decreased grade 3,[5],2 (40%) N (%)
same,Platelet count decreased grade 4,[5],1 (20%) N (%)
same,Platelet count decreased grade 5,[5],0 (0%) N (%)
same,Pneumonitis grade 3,[5],1 (20%) N (%)
same,Pneumonitis grade 4,[5],0 (0%) N (%)
same,Pneumonitis grade 5,[5],0 (0%) N (%)
same,"Resp, thoracic, mediastinal - Oth spec grade 3",[5],0 (0%) N (%)
same,"Resp, thoracic, mediastinal - Oth spec grade 4",[5],0 (0%) N (%)
same,"Resp, thoracic, mediastinal - Oth spec grade 5",[5],0 (0%) N (%)
same,White blood cell decreased grade 3,[5],0 (0%) N (%)
same,White blood cell decreased grade 4,[5],0 (0%) N (%)
same,White blood cell decreased grade 5,[5],0 (0%) N (%)
same,Abdominal pain grade 1,[6],0 (0) N (%)
same,Abdominal pain grade 2,[6],0 (0) N (%)
same,Abdominal pain grade 3,[6],1 (7) N (%)
same,Abdominal pain grade 4,[6],0 (0) N (%)
same,Abdominal pain grade 5,[6],0 (0) N (%)
same,Anal mucositis grade 1,[6],0 (0) N (%)
same,Anal mucositis grade 2,[6],1 (7) N (%)
same,Anal mucositis grade 3,[6],0 (0) N (%)
same,Anal mucositis grade 4,[6],0 (0) N (%)
same,Anal mucositis grade 5,[6],0 (0) N (%)
same,Anemia grade 1,[6],0 (0) N (%)
same,Anemia grade 2,[6],0 (0) N (%)
same,Anemia grade 3,[6],4 (27) N (%)
same,Anemia grade 4,[6],0 (0) N (%)
same,Anemia grade 5,[6],0 (0) N (%)
same,Anorexia grade 1,[6],0 (0) N (%)
same,Anorexia grade 2,[6],1 (7) N (%)
same,Anorexia grade 3,[6],1 (7) N (%)
same,Anorexia grade 4,[6],0 (0) N (%)
same,Anorexia grade 5,[6],0 (0) N (%)
same,Anxiety grade 1,[6],1 (7) N (%)
same,Anxiety grade 2,[6],0 (0) N (%)
same,Anxiety grade 3,[6],0 (0) N (%)
same,Anxiety grade 4,[6],0 (0) N (%)
same,Anxiety grade 5,[6],0 (0) N (%)
same,Aspartate aminotransferase increased grade 1,[6],1 (7) N (%)
